Where “and” joins values, the source holds several entries; their conditions need not be identical. Equal values may be shown once.

The source of these data is patent US20140031427A1, “COMBINATIONS OF ADAPALENE AND BENZOYL PEROXIDE FOR TREATING ACNE LESIONS” (GALDERMA RESEARCH & DEVELOPMENT, priority 2006, published 2014).

One data set concerns acne lesions. Put plainly: Clinical study of topical gel combining adapalene + BPO vs monads and vehicle, 517 patients, 12 weeks. It is filed as in vivo, human. The note with it: for reduction in lesions: all lesions, week 12, rounded values in text; for Degree of success / Progress of the lesions (as median absolute numbers): Number of inflammatory lesions / Progress of the lesions (as median absolute numbers): Number of non-inflammatory lesions / Progress of the lesions (as median absolute numbers): Total number of lesions / Progress of the lesions (median percentages): Number of inflammatory lesions / Progress of the lesions (median percentages): Number of non-inflammatory lesions / Progress of the lesions (median percentages): Total number of lesions: week 12, ITT, adapalene 0.1%, BPO 2.5%; for Degree of success: % patients clear or almost clear, gels once a day. On the procedure:
A clinical study for confirmation of efficacy was performed for a topical gel combining adapalene+benzoyl peroxide (BPO). This gel has the following formulation (expressed as % weight/total weight): The clinical study was a multi-center, randomized, double-blind study in parallel groups, to evaluate the tolerance and the efficacy of the above formulation, in comparison with its own individual active substances placed at the same doses in gels of the same formula as that of the fixed combination (individual formulae referred to as “monads”) and in comparison with the gel vehicle (placebo formula): adapalene gel (0.1%), BPO gel (2.5%) and vehicle gel. All the treatments were applied once a day for 12 weeks, to 517 patients suffering from acne. The main efficacy criteria were: the degree of success, defined as the percentage of patients considered as being “clear”, i.e., the patient has no more acne lesions (neither comedones nor inflammatory lesions), reflecting an improvement in the patient's clinical condition, or “almost clear” on the evaluation scale; the reduction of the percentage of inflammatory and non-inflammatory lesions after 12 weeks of treatment.

The test system of a further data set is TPA-induced ear edema. The data set can be described thus: Anti-inflammatory evaluation in TPA-induced ear oedema model. It is filed as in vivo, Balb/c mice. The note with it: T+6 hours. On the procedure: The study was carried out with 45 (5 par groups) female 9 weeks aged Balb/c ByJIc mice.
The Edema was induced by a single application of 20 μl of TPA dissolved in acetone at 0.01%.
The treatment was administrated by single topical application of tested compounds dissolved in TPA at 0.01% (groups 3, 4, 5, 6 and 7) and dissolved in TPA 0.01%+BPO (groups 8, 9 and 10).
The treatments activity was measured by inflammation evaluation with ear thickness at T+6 hours.

In another data set the test system is acne vulgaris lesions. The data set can be described thus: Pooled analysis of three adapalene-BPO clinical studies (3855 patients): efficacy and synergy. It is filed as in vivo, human. The note with it: adapalene 0.1%, BPO 2.5%; for net effect (active minus vehicle), total lesions: week 1; for success rate: week 12, % patients with IGA clear or almost clear. On the procedure:
(§1) Three multicenter, double-blind, randomized and controlled studies on the efficacy and safety of adapalene-BPO were conducted in 157 centers in the U.S, Puerto Rico, Canada, Germany, Poland and Hungary.^19-21 Patients were randomized to receive adapalene 0.1%-BPO 2.5% (Epiduo®, Galderma Laboratories), adapalene 0.1%, BPO 2.5% or vehicle once daily in the evening for 12 weeks. Adapalene and BPO used in the studies were formulated in the same gel vehicle as adapalene-BPO, instead of as the respective commercial products (Differin® and Benzac®, Galderma Laboratories). Efficacy and safety assessments were performed at each study visit, occurred at baseline, weeks 1, 2, 4, 8 and 12.
Eligible patients were 12 years or older with 20 to 50 inflammatory lesions (IL), 30 to 100 non-inflammatory lesions (NIL), no cysts and no more than 1 nodule on the face. […] Lesion counts were performed on the face only excluding the nose. Specified washout periods were required for patients taking certain topical and systemic treatments. Patients were excluded if they received systemic acne treatment or had dermatological conditions requiring interfering treatments. Women were excluded if they were pregnant, nursing, or planning a pregnancy. Men were excluded if they had facial hair that would interfere with assessments.
IGA was evaluated on a scale from 0 (clear: residual hyperpigmentation and erythema may be present) to 4 (severe: entire face is involved, covered with comedones, numerous papules and pustules, and few nodules and cysts).
(§2) Data from the three studies were pooled and analyzed. Efficacy was evaluated in the intent-to-treat (ITT) population, which included all patients who were randomized and dispensed study medicine. Safety was assessed in the safety population, which included all patients who were randomized and treated at least once.
Efficacy was evaluated by the Cochran-Mantel-Haenzsel (CMH) test, using general association for success rate and row mean differences by relative to identified distribution (RIDIT) transformed scores for percent lesion change. All tests were 2-sided.
Synergy was defined as the efficacy of combination (adapalene-BPO) greater than the sum of efficacy of individual components (adapalene alone and BPO alone). We took into account the vehicle effect by deducting it from the effect of treatments:^25
Net effect of active agent=effect of active agent−effect of vehicle Synergy=Net effect of adapalene-BPO−(Net effect of adapalene+Net effect of BPO)>0
The degree of synergy was evaluated based on the contribution of synergy to efficacy (net effect) of adapalene-BPO:
Degree of synergy(%)=(synergy/Net effect of adapalene-BPO)×100

A short description of data set [1]: Pooled analysis of three adapalene-BPO clinical studies: safety (adverse events, local facial tolerability). Type of data set: in vivo, human. The note with it: 12 weeks, safety population; adapalene 0.1%, BPO 2.5%. Here is the method:
as §1
Safety of the treatments was evaluated through reporting of adverse events (AE) and assessments of local facial tolerability. At each study visit, the investigators rated signs of erythema, scaling, dryness and stinging/burning on a scale from 0 (none) to 3 (severe).
as §2

The conditions of data set [2]: even in the presence of light; cited from earlier work.
Where [3] appears, read: Adapalene at 0.1% alone in TPA 0.01%.
Where [4] appears, read: BPO at 2.5% (alone or with adapalene at 0.1%) in TPA 0.01%.
Setting [5] is: BPO at 5% (alone or with adapalene at 0.1%) in TPA 0.01%.
[6] abbreviates: BPO at 10% (alone or with adapalene at 0.1%) in TPA 0.01%.

With `COc1ccc(-c2ccc3cc(C(=O)O)ccc3c2)cc1C12CC3CC(CC(C3)C1)C2` [Adapalene, 6-[3-(1-Adamantyl)-4-methoxyphenyl]-2-naphthoic acid], in the data set on acne lesions, the reduction in lesions stood at 35%, the Degree of success is 15.5%, the “Progress of the lesions (as median absolute numbers): Number of inflammatory lesions” value was −13.0 and the “Progress of the lesions (as median absolute numbers): Number of non-inflammatory lesions” value is −17.0. Moreover, in the data set with acne lesions, the “Progress of the lesions (as median absolute numbers): Total number of lesions” value was −29.0, the “Progress of the lesions (median percentages): Number of inflammatory lesions” value was −45.7%, the “Progress of the lesions (median percentages): Number of non-inflammatory lesions” value is reported as −33.3% and the “Progress of the lesions (median percentages): Total number of lesions” value is −35.4%. In addition, in the data set on acne lesions (listed as adapalene), the Degree of success is reported as 16%. Also, in the data set on TPA-induced ear edema (setting [3]), the “Ear edema Mean” value turned out to be 23.40; the “Inhibition vs TPA (%)” value is 13% and 12.7%. Moreover, in the data set with acne vulgaris lesions, the “net effect (active minus vehicle), total lesions” value came to 1.4% and the success rate is listed as 20.0%. In data set [1], the “percentage of patients who experienced treatment-related AEs” value was 15.3%. In data set [2], the “stability when combined with BPO” value was “remains stable”.

In the case of `O=C(OOC(=O)c1ccccc1)c1ccccc1` [BPO, benzoyl peroxide], in the data set with acne lesions, the reduction in lesions was determined as 36%; the Degree of success is 15% and 15.4%; the “Progress of the lesions (as median absolute numbers): Number of inflammatory lesions” value is listed as −13.0; the “Progress of the lesions (as median absolute numbers): Number of non-inflammatory lesions” value was −16.0. In the data set on acne lesions, the “Progress of the lesions (as median absolute numbers): Total number of lesions” value is −27, the “Progress of the lesions (median percentages): Number of inflammatory lesions” value is −43.6%, the “Progress of the lesions (median percentages): Number of non-inflammatory lesions” value is −36.4% and the “Progress of the lesions (median percentages): Total number of lesions” value is −35.6%. Besides, in the data set with TPA-induced ear edema (setting [4]), the “Ear edema Mean” value came out at 22.40; the “Inhibition vs TPA (%)” value was 16% and 16.4%. In the data set with TPA-induced ear edema (setting [5]), the “Ear edema Mean” value is listed as 20.40; the “Inhibition vs TPA (%)” value is 24% and 23.9%. In the data set with TPA-induced ear edema (setting [6]), the “Ear edema Mean” value was found to be 16.20; the “Inhibition vs TPA (%)” value is 40% and 39.6%. In addition, in the data set with acne vulgaris lesions, the “net effect (active minus vehicle), total lesions” value is 2.4% and the success rate is 23.1%. For the same compound, the “percentage of patients who experienced treatment-related AEs” value in data set [1] is listed as 8.5%.
